What was measured:
Relaxin-3 receptor 1 [1] = target: T1, Relaxin-3 receptor 1 (Homo sapiens, UniProt Q9NSD7); test: Antagonist activity at human RXFP3 expressed in CHO-K1 cells assessed as inhibition of relaxin-3 stimulated ERK1/2 phosphorylation preincubated for 15 mins followed by relaxin-3 addition for 5 mins; assay type: functional, cell-based
T1 sequence (Q9NSD7 whole entry): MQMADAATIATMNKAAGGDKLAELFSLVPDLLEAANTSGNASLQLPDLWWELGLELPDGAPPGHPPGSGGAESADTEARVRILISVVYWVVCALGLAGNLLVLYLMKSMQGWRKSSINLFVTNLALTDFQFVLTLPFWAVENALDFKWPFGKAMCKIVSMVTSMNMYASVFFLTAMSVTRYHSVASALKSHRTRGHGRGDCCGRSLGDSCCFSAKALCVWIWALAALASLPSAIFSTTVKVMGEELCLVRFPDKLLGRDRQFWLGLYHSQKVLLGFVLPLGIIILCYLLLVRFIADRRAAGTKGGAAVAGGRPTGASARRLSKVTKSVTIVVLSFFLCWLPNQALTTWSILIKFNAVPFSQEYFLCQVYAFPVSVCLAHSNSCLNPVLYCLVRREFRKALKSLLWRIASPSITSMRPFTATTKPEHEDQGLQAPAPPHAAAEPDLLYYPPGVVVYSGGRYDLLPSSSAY

Relaxin-3 receptor 1 [2] = target: T1, Relaxin-3 receptor 1
Relaxin-3 receptor 1 [3] = target: T1, Relaxin-3 receptor 1; test: Antagonist activity at human RXFP3 expressed in CHO-K1 cells assessed as forskolin-induced cAMP accumulation measured after 30 mins in presence of relaxin-3 by TR-FRET assay; assay type: functional, cell-based

H-RAAPYGVRLSGREFIRAVIFTSR-NH2 gave an IC50 (Relaxin-3 receptor 1 [1]) of 7820 nM, a Ki (Relaxin-3 receptor 1 [2]) of 11.1 nM and an IC50 (Relaxin-3 receptor 1 [3]) of 504 nM.
